This note sets out measurements from patent US11338021B2, “Combination therapies” (ENZYMATICA AB, priority 2015, dated 2022).

Entries after “also recorded” stand apart in the source; their conditions may differ.

Assay type in all cases: cell-based
In assay [1] the test system is biofilms using a combination of Streptococcus pneumonia and Streptococcus mitis. In words: Dispersal of pre-grown model (super) biofilm in microtiter plate, crystal violet staining, absorbance at 492 nm. The settings on record: for biofilm disruption by antibiotic and cod trypsin combination compared with antibiotic alone: FIG. 1, Student's t test; for effect of antibiotic alone on biofilm formation: biofilms grown for 4 hours; for disruption of super biofilm by cod trypsins alone: FIGS. 4-6, compared with placebo, treated for 2 minutes. How it is done:
Effects of combination of cod trypsins with selected antibiotics on biofilm dispersal. […] Biofilms using a combination of Streptococcus pneumonia and Streptococcus mitis were grown in a microtiter plate and used as a model for biofilm. The biofilm was treated with an antibiotic or a combination of the antibiotics and cod trypsins. The biofilms were stained with crystal violet followed by dissolution with acetic acid. Biofilm formation was measured as absorbance at 492 nm, and normalized to untreated biofilm. […] P values above bars indicate significance of difference between the two treatments as evaluated by Student's t test.
Effects of combination of cod trypsins with selected antibiotics on biofilm dispersal. […] Biofilms using a combination of Streptococcus pneumonia and Streptococcus mitis were grown in a microtiter plate and used as a model biofilm. The biofilm was treated with cod trypsins, an antibiotic, or a combination of the two. The biofilms were stained with crystal violet followed by dissolution with acetic acid. Biofilm formation was measured as absorbance at 492 nm, and normalized to untreated biofilm. […] P values above bars indicate significance of effects as evaluated by ANOVA analysis.
Each column represents one type of treatment or treatment combination, with the rows representing decreasing concentrations from top to bottom. After treatment biofilms are stained with crystal violet, with a darker colour representing more remaining biofilm. […] The lowest row represents blanks, where the first six holes represent untreated biofilm and the next six represent no biofilm.
Effects of cod trypsins on the super biofilm presented visually after biofilm staining with crystal violet. […] The super biofilm with a combination of Streptococcus pneumonia and Streptococcus mitis were grown in a microtiter plate. The biofilm was treated with cod trypsins or placebo for 2 minutes and the wells were stained to measure the presence (black wells) of biofilm or its absence (clear wells) after treatment.
After treatment the biofilms were stained with crystal violet, with a darker colour representing more remaining biofilm.
Effects of cod trypsins on the super biofilm as measured by spectrophotometry after crystal violet staining and dissolution in acetic acid. […] Biofilms using a combination of Streptococcus pneumonia and Streptococcus mitis were grown in a microtiter plate. The biofilm was treated with cod trypsins or placebo and the wells were stained with crystal violet followed by dissolution with acetic acid. Biofilm formation was measured as absorbance at 492 nm, and normalized to untreated biofilm. […] Data is presented as a bar-plot with the error bars indicating the standard error of the mean (SEM). Data for dilutions of placebo and cod trypsins treated bacterial biofilms are placed next to each other. The Log reduction of biofilm formation of Penzyme compared to that of placebo in the same dilution is above the bars, as is the level of significance indicated by asterisks (*), where * represents a P of <0.05, ** a P<0.01 and *** a P<0.001. Students T-test was used to calculate the significance.
Log reduction of super biofilm by cod trypsins at different concentrations. […] Biofilms using a combination of Streptococcus pneumonia and Streptococcus mitis were grown in a microtiter plate. The biofilm was treated with cod trypsins or placebo and the wells were stained with crystal violet followed by dissolution with acetic acid. Biofilm formation was measured as absorbance at 492 nm, and the reduction compared to placebo treated biofilm on a logarithmic scale.
Biofilms using a combination of Streptococcus pneumonia and Streptococcus mitis were grown in a microtiter plate. The biofilm was treated with an antibiotic or a combination of the antibiotics and cod trypsins. The biofilms were stained with crystal violet followed by dissolution with acetic acid.

Assay [2] has as its system biofilm forming bacteria Streptococcus pneumonia and Streptococcus mitis. In words: Pre-treatment of planktonic bacteria before biofilm formation (4 hours), crystal violet staining, absorbance at 492 nm. To be noted: FIGS. 7-8, compared with placebo, biofilms grown 4 hours, normalized to untreated biofilm. How it is done:
Effects of cod trypsins pre-treatment on biofilm formation. […] Biofilms using a combination of Streptococcus pneumonia and Streptococcus mitis were grown in a microtiter plate after being briefly treated with cod trypsins or placebo. After allowing the biofilms to grow for 4 hours the wells were stained with crystal violet followed by dissolution with acetic acid. Biofilm formation was measured as absorbance at 492 nm, and normalized to untreated biofilm. […] Data is presented as a boxplot where the top of the rectangle indicates the third quartile, a horizontal line near the middle of the rectangle indicates the median, and the bottom of the rectangle indicates the first quartile. A vertical line extends from the top of the rectangle to indicate the maximum value, and another vertical line extends from the bottom of the rectangle to indicate the minimum value.
Effects of cod trypsin pre-treatment on biofilm formation. […] Biofilms using a combination of Streptococcus pneumonia and Streptococcus mitis were grown in a microtiter plate after being treated with cod trypsins or placebo. After allowing the biofilms to grow for 4 hours the wells were stained with crystal violet followed by dissolution with acetic acid. Biofilm formation was measured as absorbance at 492 nm, and normalized to untreated biofilm. […] Statistical significance of the difference, as evaluated by Student's t test, is indicated by symbols above the boxes where n.s. is p >0.05, * is p<0.05, ** p<0.01, and *** p<0.001.
After allowing the biofilms to grow for 4 hours the wells were stained with crystal violet followed by dissolution with acetic acid. Biofilm formation was measured as absorbance at 492 nm, and normalized to untreated biofilm. […] Cod trypsins prevent biofilm formation in a concentration dependent manner. […] Biofilm formation was measured as absorbance at 492 nm, and normalized to untreated biofilm. […] Statistical significance of the difference, as evaluated by Student's t test, is indicated by symbols above the boxes where n.s. is p >0.05, * is p<0.05, ** p<0.01, and *** p<0.001.

In a further assay the test system is bacteria. In words: Lethality of cod trypsin to bacteria (statement, no method given).
The mark [3] stands for this setting: absorbance at 492 nm normalized to untreated biofilm.
Setting [4] is: FIG. 3, 96 well plate image, crystal violet.

As for `CC[C@H]1OC(=O)[C@H](C)[C@@H](O[C@H]2C[C@@](C)(OC)[C@@H](O)[C@H](C)O2)[C@H](C)[C@@H](O[C@@H]2O[C@H](C)C[C@H](N(C)C)[C@H]2O)[C@](C)(O)C[C@@H](C)C(=O)[C@H](C)[C@@H](O)[C@]1(C)O` [erythromycin], the “biofilm disruption by antibiotic and cod trypsin combination compared with antibiotic alone” value in assay [1] (setting [3]) is “more effective in disrupting bacterial biofilm than antibiotics alone”.

Take `CO/N=C(\C(=O)N[C@@H]1C(=O)N2C(C(=O)O)=C(COC(C)=O)CS[C@H]12)c1csc(N)n1` [cefotaxime]: in assay [1] (setting [3]), the “biofilm disruption by antibiotic and cod trypsin combination compared with antibiotic alone” value is given as “more effective in disrupting bacterial biofilm than antibiotics alone”. In assay [1] (FIG. 2, absorbance at 492 nm normalized to untreated biofilm, ANOVA), the “biofilm disruption by combination of cod trypsin and antibiotic compared with either alone” value was “more effective in disrupting bacterial biofilm than either cod trypsins or antibiotics alone”.

Regarding `Cc1onc(-c2ccccc2)c1C(=O)N[C@@H]1C(=O)N2[C@@H]1SC(C)(C)[C@@H]2C(=O)O` [oxacillin], the “biofilm disruption by antibiotic and cod trypsin combination compared with antibiotic alone” value in assay [1] (setting [3]) was “more effective in disrupting bacterial biofilm than antibiotics alone”.

`CN[C@H](CC(C)C)C(=O)N[C@H]1C(=O)N[C@@H](CC(N)=O)C(=O)N[C@H]2C(=O)N[C@H]3C(=O)N[C@H](C(=O)N[C@H](C(=O)O)c4cc(O)cc(O)c4-c4cc3ccc4O)[C@H](O)c3ccc(c(Cl)c3)Oc3cc2cc(c3O[C@@H]2O[C@H](CO)[C@@H](O)[C@H](O)[C@H]2O[C@H]2C[C@](C)(N)[C@H](O)[C@H](C)O2)Oc2ccc(cc2Cl)[C@H]1O` [vancomycin]: the “biofilm disruption by antibiotic and cod trypsin combination compared with antibiotic alone” value in assay [1] (setting [3]) is recorded as “not to have significantly increased efficacy against the model biofilm when combined with trypsin”. Further, in assay [1] (setting [4]), the “effect of antibiotic in combination with cod trypsin on efficacy of cod trypsin” value was “can increase the efficacy of cod trypsin” and the “effect of antibiotic alone on biofilm formation” value was “the drug alone appears to increase biofilm formation”. Besides, the “effect of antibiotic alone on biofilm formation” value in assay [1] (FIG. 3, 96 well plate image, crystal violet, listed as Vancomycin) was “may increase biofilm formation”.

B1: cod trypsin: trypsin from Atlantic cod (Gadus morhua), a polypeptide having serine protease activity (protein, listed as Gadus morhua)
chain: IVGGYECTKHSQAHQVSLNSGYHFCGGSLVSKDWVVSAAHCYKSVLRVRLGEHHIRVNEGTEQYISSSSVIRHPNYSSYNINNDIMLIKLTKPATLNQYVHAVALPTECAADATMCTVSGWGNTMSSVADGDKLQCLSLPILSHADCANSYPGMITQSMFCAGYLEGGKDSCQGDSGGPVVCNGVLQGVVSWGYGCAERDHPGVYAKVCVLSGWVRDTMANY
Regarding B1, the “time in which cod trypsins disrupt bacterial biofilm” value in assay [1] (FIG. 6, at concentrations 8 U/g or higher) was “less than 2 minutes”. Moreover, in assay [1] (FIG. 6, log reduction compared to placebo treated biofilm), the “concentrations at which cod trypsins are very effective in disrupting bacterial biofilm” value is at least 8 U/g. The “disruption of super biofilm by cod trypsins alone” value was “effective at removing biofilms at the higher concentration” in assay [1]; “very effective in disrupting the super biofilm; also recorded: very effective in disrupting bacterial biofilm; also recorded: disrupt the super biofilm in a concentration dependent manner; also recorded: quite capable of both removing bacteria from and partially prevent reattachment of bacteria to surfaces in a concentration dependent manner” in assay [1] (listed as cod trypsins). For the same molecule, the “prevention of biofilm formation by pre-treatment of bacteria” value is “can prevent the formation of biofilms in a concentration dependent manner” in assay [2], “very effective in preventing bacterial biofilm formation” in assay [2] (listed as cod trypsin composition) and “very effective in preventing bacterial biofilm formation” in assay [2] (listed as cod trypsins). In addition, in the assay with bacteria, the “lethality to the bacteria” value is given as “not lethal to the bacteria”.
